Legend:
Format in all cases: biochemical
mTOR Kinase (FLAG-TOR) = target: T1, mTOR Kinase (FLAG-TOR) (Homo sapiens, UniProt P42345); test: mTOR kinase assay, purified enzyme, DELFIA format; details: 100 μM ATP, 1.25 μM His6-S6K; read-out: mTOR Kinase Median IC50
T1 construct: FLAG

PI3Kγ = PI3Kγ (Homo sapiens, UniProt P48736); test: PI3K-gamma fluorescence polarization assay; details: 20 μM PIP2, 25 μM ATP; read-out: PI3Kγ Median IC50
Experimental: PI3K-alpha and PI3K-gamma Fluorescence Polarization Assay Protocols
The reaction buffer was 20 mM HEPES pH 7.5, 2 mM MgCl2, 0.05% CHAPS, and 0.01% βME (added fresh). The substrate solution was 40 μM PIP2 (diC8, Echelon, Salt Lake City Utah cat # P-4508, 1 mM in water) and 50 μM ATP in the reaction buffer. Nunc 384-well black polypropylene fluorescent plates were used for PI3K assays. The assay is run by putting 9.5 μl of freshly diluted enzyme in the reaction buffer per well, adding 0.5 μl of diluted drug or DMSO, and mixing. Then 10 μl of the substrate solution is added to each well to start the reaction. A final concentration of 20 μM PIP2 and 25 μM ATP in the reaction was used. Reactions were allowed to proceed for 30-60 minutes at room temperature. After 30-60 minutes, 20 μl of a solution of 10 nM TAMRA detector (Red detector probe-Echelon) and 2.5 μM of GST-murineGRP (1.5 mg/ml in 17% glycerol) was added per well to stop the reaction. The resulting solution was mixed well and allowed to stand for 90-110 minutes before reading plate. Assay Plates were read on Perkin-Elmer Envision plate readers with appropriate filters for Tamra [BODIPY-TMRI(1,3,4,5)P4]. Data obtained were used to calculate enzymatic activity and enzyme inhibition by inhibitor compounds. It is important to keep Red probe solutions dark. This procedure is adapted from Echelon Biosciences Inc procedure for their PI3-Kinase fluorescence polarization activity Assay kit Product number K-1100.

PI3Kα = PI3Kα (Homo sapiens, UniProt P42336); test: PI3K-alpha fluorescence polarization assay; details: 20 μM PIP2, 25 μM ATP; read-out: PI3Kα Median IC50
PI3Kα, sequence (P42336 whole entry, species assumed): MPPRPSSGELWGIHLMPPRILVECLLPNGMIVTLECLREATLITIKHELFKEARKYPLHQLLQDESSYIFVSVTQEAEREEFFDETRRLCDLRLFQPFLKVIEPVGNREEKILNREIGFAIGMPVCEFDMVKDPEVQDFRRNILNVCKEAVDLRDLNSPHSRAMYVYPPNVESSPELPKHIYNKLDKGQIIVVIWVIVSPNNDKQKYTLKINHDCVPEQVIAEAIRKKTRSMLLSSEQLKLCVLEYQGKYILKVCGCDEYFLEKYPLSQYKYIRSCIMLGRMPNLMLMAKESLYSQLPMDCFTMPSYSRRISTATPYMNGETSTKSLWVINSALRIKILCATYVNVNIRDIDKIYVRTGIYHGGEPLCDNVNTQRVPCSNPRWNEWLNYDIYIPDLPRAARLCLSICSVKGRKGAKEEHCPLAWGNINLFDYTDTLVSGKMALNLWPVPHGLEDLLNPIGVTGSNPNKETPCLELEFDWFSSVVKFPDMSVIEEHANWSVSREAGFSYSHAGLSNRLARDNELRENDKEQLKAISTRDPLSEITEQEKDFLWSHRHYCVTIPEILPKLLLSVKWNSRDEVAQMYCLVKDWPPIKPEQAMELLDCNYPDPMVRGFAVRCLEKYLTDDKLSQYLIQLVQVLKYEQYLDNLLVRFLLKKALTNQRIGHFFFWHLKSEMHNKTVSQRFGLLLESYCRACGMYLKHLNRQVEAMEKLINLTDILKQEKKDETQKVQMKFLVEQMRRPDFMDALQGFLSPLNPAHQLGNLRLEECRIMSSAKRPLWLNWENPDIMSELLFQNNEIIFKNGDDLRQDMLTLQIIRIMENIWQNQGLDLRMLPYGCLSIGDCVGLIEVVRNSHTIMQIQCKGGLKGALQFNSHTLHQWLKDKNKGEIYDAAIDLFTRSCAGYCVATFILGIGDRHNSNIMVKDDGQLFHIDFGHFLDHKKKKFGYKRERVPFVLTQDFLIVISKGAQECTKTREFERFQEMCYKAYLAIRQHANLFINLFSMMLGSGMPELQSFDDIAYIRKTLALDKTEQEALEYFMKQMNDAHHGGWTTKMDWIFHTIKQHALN
PI3Kα, sequence (P27986 whole entry partner, species assumed): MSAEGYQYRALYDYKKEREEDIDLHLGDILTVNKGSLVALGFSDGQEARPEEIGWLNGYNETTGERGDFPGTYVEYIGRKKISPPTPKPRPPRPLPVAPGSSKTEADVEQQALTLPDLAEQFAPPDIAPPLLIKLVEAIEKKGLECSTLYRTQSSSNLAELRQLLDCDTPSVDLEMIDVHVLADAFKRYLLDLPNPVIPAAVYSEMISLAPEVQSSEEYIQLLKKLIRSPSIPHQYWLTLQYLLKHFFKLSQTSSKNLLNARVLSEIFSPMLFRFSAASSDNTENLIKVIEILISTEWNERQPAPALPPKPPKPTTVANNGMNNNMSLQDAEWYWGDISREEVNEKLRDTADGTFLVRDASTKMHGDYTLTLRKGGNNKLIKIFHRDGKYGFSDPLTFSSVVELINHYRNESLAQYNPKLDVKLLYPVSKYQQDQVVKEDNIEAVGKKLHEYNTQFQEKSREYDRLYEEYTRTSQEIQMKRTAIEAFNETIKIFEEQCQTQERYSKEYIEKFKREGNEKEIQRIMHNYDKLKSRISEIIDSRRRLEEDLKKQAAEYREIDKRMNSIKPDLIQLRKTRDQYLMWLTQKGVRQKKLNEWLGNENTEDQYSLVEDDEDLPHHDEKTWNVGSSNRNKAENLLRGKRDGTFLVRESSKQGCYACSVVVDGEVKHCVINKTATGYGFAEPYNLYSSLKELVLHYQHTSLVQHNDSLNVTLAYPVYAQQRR

PI3Kγ, sequence (P48736 whole entry, species assumed): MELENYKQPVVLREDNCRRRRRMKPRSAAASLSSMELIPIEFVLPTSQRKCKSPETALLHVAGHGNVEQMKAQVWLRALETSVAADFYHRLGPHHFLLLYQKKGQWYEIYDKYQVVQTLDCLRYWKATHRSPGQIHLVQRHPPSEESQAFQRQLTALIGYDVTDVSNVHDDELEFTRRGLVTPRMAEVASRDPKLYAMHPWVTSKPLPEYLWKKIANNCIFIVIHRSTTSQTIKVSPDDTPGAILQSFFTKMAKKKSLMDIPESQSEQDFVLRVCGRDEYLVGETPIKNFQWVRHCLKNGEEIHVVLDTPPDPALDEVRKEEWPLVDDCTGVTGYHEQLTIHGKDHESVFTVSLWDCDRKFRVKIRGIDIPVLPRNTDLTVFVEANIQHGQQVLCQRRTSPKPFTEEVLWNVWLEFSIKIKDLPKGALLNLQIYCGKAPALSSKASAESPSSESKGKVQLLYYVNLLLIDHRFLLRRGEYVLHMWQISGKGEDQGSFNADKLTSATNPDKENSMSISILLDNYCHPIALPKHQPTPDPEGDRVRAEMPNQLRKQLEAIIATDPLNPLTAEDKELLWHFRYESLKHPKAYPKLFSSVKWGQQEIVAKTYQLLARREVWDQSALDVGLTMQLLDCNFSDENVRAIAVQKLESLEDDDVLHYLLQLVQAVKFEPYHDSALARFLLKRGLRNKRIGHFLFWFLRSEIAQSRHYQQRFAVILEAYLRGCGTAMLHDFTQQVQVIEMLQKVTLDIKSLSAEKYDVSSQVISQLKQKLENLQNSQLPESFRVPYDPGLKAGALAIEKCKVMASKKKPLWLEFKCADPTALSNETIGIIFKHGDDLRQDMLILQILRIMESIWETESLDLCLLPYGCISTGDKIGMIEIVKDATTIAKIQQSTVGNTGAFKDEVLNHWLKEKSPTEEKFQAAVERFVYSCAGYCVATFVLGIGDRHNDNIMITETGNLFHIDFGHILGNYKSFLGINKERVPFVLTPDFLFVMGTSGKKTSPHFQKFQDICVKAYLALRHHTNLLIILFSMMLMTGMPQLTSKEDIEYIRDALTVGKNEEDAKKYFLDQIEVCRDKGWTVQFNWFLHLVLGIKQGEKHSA

## CCn1ccc2c(N3CCOCC3)nc(-c3ccc(NC(=O)Nc4ccc(C(=O)NCCN5CCCCC5)cc4)cc3)nc21 [Compound 68, 4-({[4-(7-ethyl-4-morpholin-4-yl-7H-pyrrolo[2,3-d]pyrimidin-2-yl)phenyl]carbamoyl}amino)-N-(2-piperidin-1-ylethyl)benzamide]
mTOR Kinase (FLAG-TOR)
  IC50: 0.00091 µM
PI3Kγ
  IC50: 0.061 µM
PI3Kα
  IC50: 0.004 µM

## CC(C)n1ccc2c(N3CCOCC3)nc(-c3ccc(NC(=O)Nc4ccncc4)cc3)nc21 [Compound 79, 1-[4-(7-isopropyl-4-morpholin-4-yl-7H-pyrrolo[2,3-d]pyrimidin-2-yl)phenyl]-3-pyridin-4-ylurea]
mTOR Kinase (FLAG-TOR)
  IC50: 0.00115 µM
PI3Kγ
  IC50: 0.193 µM
PI3Kα
  IC50: 0.028 µM

## CN(C)CCNC(=O)c1ccc(NC(=O)Nc2ccc(-c3nc(N4CCOCC4)c4ccn(CC(F)(F)F)c4n3)cc2)cc1 [Compound 52, N-[2-(dimethylamino)ethyl]-4-[({4-[4-morpholin-4-yl-7-(2,2,2-trifluoroethyl)-7H-pyrrolo[2,3-d]pyrimidin-2-yl]phenyl}carbamoyl)amino]benzamide]
mTOR Kinase (FLAG-TOR)
  IC50: 0.0003 µM
PI3Kγ
  IC50: 0.024 µM
PI3Kα
  IC50: 0.0011 µM

## CN1CCN(c2ccc(NC(=O)Nc3ccc(-c4nc(N5CCOCC5)c5ccn(CC(F)(F)F)c5n4)cc3)cc2)CC1 [Compound 39, 1-[4-(4-methylpiperazin-1-yl)phenyl]-3-{4-[4-morpholin-4-yl-7-(2,2,2-trifluoroethyl)-7H-pyrrolo[2,3-d]pyrimidin-2-yl]phenyl}urea]
mTOR Kinase (FLAG-TOR)
  IC50: 0.00195 µM
PI3Kγ
  IC50: 0.041 µM
PI3Kα
  IC50: 0.017 µM

## CCn1cc(CN(C)C)c2c(N3CCOCC3)nc(-c3ccc(NC(=O)NC)cc3)nc21 [Compound 97, 1-(4-{5-[(dimethylamino)methyl]-7-ethyl-4-morpholin-4-yl-7H-pyrrolo[2,3-d]pyrimidin-2-yl}phenyl)-3-methylurea]
mTOR Kinase (FLAG-TOR)
  IC50: 0.047 µM
PI3Kγ
  IC50: 12 µM
PI3Kα
  IC50: 1.89 µM

## CCn1ccc2c(N3CCOCC3)nc(-c3ccc(NC(=O)Nc4ccc(C(=O)N5CCN(C)CC5)cc4)cc3)nc21 [Compound 63, 1-[4-(7-ethyl-4-morpholin-4-yl-7H-pyrrolo[2,3-d]pyrimidin-2-yl)phenyl]-3-{4-[(4-methylpiperazin-1-yl)carbonyl]phenyl}urea]
mTOR Kinase (FLAG-TOR)
  IC50: 0.00175 µM
PI3Kγ
  IC50: 0.019 µM
PI3Kα
  IC50: 0.0014 µM

## CC(C)n1ccc2c(N3CCOCC3)nc(-c3ccc(NC(=O)Nc4ccc(C(=O)N5CCC(N6CCCC6)CC5)cc4)cc3)nc21 [Compound 88, 1-[4-(7-isopropyl-4-morpholin-4-yl-7H-pyrrolo[2,3-d]pyrimidin-2-yl)phenyl]-3-{4-[(4-pyrrolidin-1-ylpiperidin-1-yl)carbonyl]phenyl}urea]
mTOR Kinase (FLAG-TOR)
  IC50: 0.00059 µM
PI3Kγ
  IC50: 0.038 µM
PI3Kα
  IC50: 0.0043 µM

## NC(=O)Nc1cccc(Cn2ccc3c(N4CCOCC4)nc(-c4cccc(CO)c4)nc32)c1 [Compound 19, 1-[3-({2-[3-(hydroxymethyl)phenyl]-4-morpholin-4-yl-7H-pyrrolo[2,3-d]pyrimidin-7-yl}methyl)phenyl]urea]
mTOR Kinase (FLAG-TOR)
  IC50: 0.435 µM
PI3Kγ
  IC50: 0.868 µM
PI3Kα
  IC50: 0.099 µM

## CNCCN(C)C(=O)c1ccc(NC(=O)Nc2ccc(-c3nc(N4CCOCC4)c4ccn(CC(F)(F)F)c4n3)cc2)cc1 [Compound 53, N-methyl-N-[2-(methylamino)ethyl]-4-[({4-[4-morpholin-4-yl-7-(2,2,2-trifluoroethyl)-7H-pyrrolo[2,3-d]pyrimidin-2-yl]phenyl}carbamoyl)amino]benzamide]
mTOR Kinase (FLAG-TOR)
  IC50: 0.00057 µM
PI3Kγ
  IC50: 0.016 µM
PI3Kα
  IC50: < 0.0021 µM

## O=C(Nc1ccc(F)cc1)Nc1ccc(-c2nc(N3CCOCC3)c3ccn(CC(F)(F)F)c3n2)cc1 [Compound 38, 1-(4-fluorophenyl)-3-{4-[4-morpholin-4-yl-7-(2,2,2-trifluoroethyl)-7H-pyrrolo[2,3-d]pyrimidin-2-yl]phenyl}urea]
mTOR Kinase (FLAG-TOR)
  IC50: 0.00345 µM
PI3Kγ
  IC50: 1.53 µM
PI3Kα
  IC50: 0.082 µM

## O=C(Nc1ccncc1)Nc1ccc(-c2nc(N3CCOCC3)c3ccn(CCNCCc4cnc[nH]4)c3n2)cc1 [Compound 30, 1-{4-[7-(2-{[2-(1H-imidazol-5-yl)ethyl]amino}ethyl)-4-morpholin-4-yl-7H-pyrrolo[2,3-d]pyrimidin-2-yl]phenyl}-3-pyridin-4-ylurea]
mTOR Kinase (FLAG-TOR)
  IC50: 0.0107 µM
PI3Kγ
  IC50: 0.245 µM
PI3Kα
  IC50: 0.014 µM

## CCn1ccc2c(N3CCOCC3)nc(-c3ccc(NC(=O)Nc4ccc(C(=O)N5CCN(C(C)C)CC5)cc4)cc3)nc21 [Compound 91, 1-[4-(7-ethyl-4-morpholin-4-yl-7H-pyrrolo[2,3-d]pyrimidin-2-yl)phenyl]-3-(4-{[4-(1-methylethyl)piperazin-1-yl]carbonyl}phenyl)urea]
mTOR Kinase (FLAG-TOR)
  IC50: 0.00073 µM
PI3Kγ
  IC50: 0.05 µM
PI3Kα
  IC50: 0.004 µM

## CN(C)CCn1ccc2c(N3CCOCC3)nc(-c3ccc(N)cc3)nc21 [Compound 8, 4-{7-[2-(dimethylamino)ethyl]-4-morpholin-4-yl-7H-pyrrolo[2,3-d]pyrimidin-2-yl}aniline]
mTOR Kinase (FLAG-TOR)
  IC50: > 3.75 µM
PI3Kγ
  IC50: > 10 µM
PI3Kα
  IC50: 2.98 µM

## CCN1CCN(C(=O)c2ccc(NC(=O)Nc3ccc(-c4nc(N5CCOCC5)c5ccn(C(C)C)c5n4)cc3)cc2)CC1 [Compound 92, 1-{4-[(4-ethylpiperazin-1-yl)carbonyl]phenyl}-3-{4-[7-(1-methylethyl)-4-morpholin-4-yl-7H-pyrrolo[2,3-d]pyrimidin-2-yl]phenyl}urea]
mTOR Kinase (FLAG-TOR)
  IC50: 0.00067 µM
PI3Kγ
  IC50: 0.072 µM
PI3Kα
  IC50: 0.0085 µM

## CCn1ccc2c(N3CCOCC3)nc(-c3ccc(NC(=O)Nc4ccc(C(=O)N(C)CCN(C)C)cc4)cc3)nc21 [Compound 61, N-[2-(dimethylamino)ethyl]-4-({[4-(7-ethyl-4-morpholin-4-yl-7H-pyrrolo[2,3-d]pyrimidin-2-yl)phenyl]carbamoyl}amino)-N-methylbenzamide]
mTOR Kinase (FLAG-TOR)
  IC50: 0.00043 µM
PI3Kγ
  IC50: 0.02 µM
PI3Kα
  IC50: < 0.0019 µM

## CC(C)n1ccc2c(N3CCOCC3)nc(-c3ccc(NC(=O)Nc4ccc(C(=O)NCCN5CCCC5)cc4)cc3)nc21 [Compound 87, 4-({[4-(7-isopropyl-4-morpholin-4-yl-7H-pyrrolo[2,3-d]pyrimidin-2-yl)phenyl]carbamoyl}amino)-N-(2-pyrrolidin-1-ylethyl)benzamide]
mTOR Kinase (FLAG-TOR)
  IC50: 0.00055 µM
PI3Kγ
  IC50: 0.088 µM
PI3Kα
  IC50: 0.005 µM

## O=C(Nc1ccncc1)Nc1ccc(-c2nc(N3CCOCC3)c3ccn(CCNc4ccc(F)cc4)c3n2)cc1 [Compound 25, 1-[4-(7-{2-[(4-fluorophenyl)amino]ethyl}-4-morpholin-4-yl-7H-pyrrolo[2,3-d]pyrimidin-2-yl)phenyl]-3-pyridin-4-ylurea]
mTOR Kinase (FLAG-TOR)
  IC50: 0.033 µM
PI3Kγ
  IC50: 0.418 µM
PI3Kα
  IC50: 0.041 µM

## CCn1ccc2c(N3CCOCC3)nc(-c3ccc(NC(=O)Nc4ccc(C(=O)N5CCC(N6CCOCC6)CC5)cc4)cc3)nc21 [Compound 77, 1-[4-(7-ethyl-4-morpholin-4-yl-7H-pyrrolo[2,3-d]pyrimidin-2-yl)phenyl]-3-{4-[(4-morpholin-4-ylpiperidin-1-yl)carbonyl]phenyl}urea]
mTOR Kinase (FLAG-TOR)
  IC50: 0.00175 µM
PI3Kγ
  IC50: 0.064 µM
PI3Kα
  IC50: 0.0055 µM

## CCn1ccc2c(N3CCOCC3)nc(-c3ccc(NC(=O)Nc4ccc(C(=O)OC)cc4)cc3)nc21 [Compound 59, methyl 4-({[4-(7-ethyl-4-morpholin-4-yl-7H-pyrrolo[2,3-d]pyrimidin-2-yl)phenyl]carbamoyl}amino)benzoate]
mTOR Kinase (FLAG-TOR)
  IC50: 0.0047 µM
PI3Kγ
  IC50: 0.562 µM
PI3Kα
  IC50: 0.166 µM

## CCn1ccc2c(N3CCOCC3)nc(-c3ccc(NC(=O)Nc4ccc(C(=O)N5CCC(N(C)C)CC5)cc4)cc3)nc21 [Compound 65, 1-(4-{[4-(dimethylamino)piperidin-1-yl]carbonyl}phenyl)-3-[4-(7-ethyl-4-morpholin-4-yl-7H-pyrrolo[2,3-d]pyrimidin-2-yl)phenyl]urea]
mTOR Kinase (FLAG-TOR)
  IC50: 0.00109 µM
PI3Kγ
  IC50: 0.02 µM
PI3Kα
  IC50: 0.0011 µM

## CN(C)CCn1cc(C(=O)Nc2cccnc2)c2c(N3CCOCC3)nc(-c3ccc(NC(=O)Nc4cccnc4)cc3)nc21 [Compound 10, 7-[2-(dimethylamino)ethyl]-4-morpholin-4-yl-N-pyridin-3-yl-2-{4-[(pyridin-3-ylcarbamoyl)amino]phenyl}-7H-pyrrolo[2,3-d]pyrimidine-5-carboxamide]
mTOR Kinase (FLAG-TOR)
  IC50: 0.00088 µM
PI3Kγ
  IC50: 0.072 µM
PI3Kα
  IC50: 0.016 µM

## O=C(NCCO)Nc1ccc(-c2nc(N3CCOCC3)c3ccn(CC(F)(F)F)c3n2)cc1 [Compound 42, 1-(2-hydroxyethyl)-3-{4-[4-morpholin-4-yl-7-(2,2,2-trifluoroethyl)-7H-pyrrolo[2,3-d]pyrimidin-2-yl]phenyl}urea]
mTOR Kinase (FLAG-TOR)
  IC50: 0.00094 µM
PI3Kγ
  IC50: 0.39 µM
PI3Kα
  IC50: 0.11 µM

## CN1CCN(C(=O)c2ccc(NC(=O)Nc3ccc(-c4nc(N5CCOCC5)c5ccn(CC(F)(F)F)c5n4)cc3)cc2)CC1 [Compound 54, 1-{4-[(4-methylpiperazin-1-yl)carbonyl]phenyl}-3-{4-[4-morpholin-4-yl-7-(2,2,2-trifluoroethyl)-7H-pyrrolo[2,3-d]pyrimidin-2-yl]phenyl}urea]
mTOR Kinase (FLAG-TOR)
  IC50: 0.0011 µM
PI3Kγ
  IC50: 0.016 µM
PI3Kα
  IC50: 0.0019 µM

From US20100003250A1, “(2-ARYL-7H-PYRROLO[2,3-D]PYRIMIDIN-4-YL)MORPHOLINE COMPOUNDS, THEIR USE AS MTOR KINASE AND PI3 KINASE INHIBITORS, AND THEIR SYNTHESES” (Wyeth, priority 2008, published 2010)
